Assays:
[1] = system: human spermatozoa; assay: Superoxide assay, luminol-based Diogenes chemiluminescence, whole spermatozoa; assay type: cell-based; details: for effect on ionomycin-induced superoxide chemiluminescence signal: 1 μM ionomycin; for effect on ionomycin-induced superoxide chemiluminescence signal / effect on H2O2-induced superoxide chemiluminescence signal: SOD 400 U/ml, DPI 10 μM, BAPTA 100 μM; for effect on H2O2-induced superoxide chemiluminescence signal: 100 μM H2O2, GKT136901 0.5 μM
Source text: (§1) Human semen samples were obtained from patient donors as a part of their clinical evaluation for fertility and reproductive health status. Portions of the samples not required for clinical analyses were de-identified and made available for the research protocols described. Under these conditions, the Institutional Review Board determined that the study is exempt from requirements for protocol approval and informed consent. Semen was collected by masturbation into sterile plastic containers and allowed to liquefy for at least 30 min before being processed. The samples were centrifuged (500 g, 15 min) to separate the seminal plasma from spermatozoa, and the pellet washed twice in phosphate-buffered normal saline pH 7 with 10 mM glucose (PBS-G). The spermatozoa were then counted in a hemocytometer chamber, resuspended in PBS-G at 10^9/ml, and used for superoxide assays. Sperm samples containing leukocytes detected by microscopic examination were excluded from the study. For selected experiments, motile spermatozoa were collected using the swim-up procedure (Vijayakumar et al. (1986) Arch. Androl. 17, 223-230; Parrish and Foote (1987) J. Androl. 8, 259-266). Briefly, the spermatozoa were sedimented by centrifugation (500 g, 15 min) and the tube was then incubated upright for 60 min at 37° C. Motile spermatozoa that progressed from the pellet into the supernatant (swim-up fraction) were collected by aspiration and counted.
Superoxide generation was measured using a luminol-based chemiluminescence assay (Diogenes reagent, National Diagnostics, Atlanta, Ga.). […] Spermatozoa were suspended at 10^9/ml in PBS-G. A 100 μl aliquot of the Diogenes reagent was mixed with 2×10^7 spermatozoa and incubated at 37° C. for 2-4 minutes. Superoxide generation was measured at baseline and after stimulation with ionomycin (1 μM), phorbol myristate acetate (PMA, 1 μg/ml), or H2O2 (100 μM and other concentrations as indicated). Chemiluminescence was measured every 30-60 sec for up to 10-15 min using a Clarity™ BioTek luminometer and an integration time of 5 sec.
Spermatozoa were pre-incubated for 5 min prior to the superoxide assay with 400 U/ml superoxide dismutase (SOD), 10 μM diphenylene iodonium (DPI), or 100 μM 1,2-Bis (2-aminophenoxy) ethane-N,N,N′,N′-tetraacetic acid (BAPTA). […] In some experiments, cells were pre-exposed to the NOX inhibitor 2-(2-chlorophenyl)-4-methyl-5-(pyridin-2-ylmethyl)-1H-pyrazolo[4,3-c]pyridine-3,6(2H,5H)-dione (GKT136901, 0.5 μM and other concentrations as indicated) for 10 min before exposure to either H2O2 or PMA.

[2] = system: human spermatozoa; assay: Swim-up procedure, sperm motility; assay type: cell-based; details: GKT136901 0.5 μM or DPI 10 μM; 100 μM H2O2
Source text: as §1

[3] = system: HV1 proton channels in K562 and K562/NOX5 cells; assay: Perforated-patch clamp recording of proton currents; assay type: cell-based, human
Source text: Micropipettes were pulled in several stages using a Flaming-Brown automatic pipette puller (Sutter Instruments, San Rafael, Calif.) from 7052 glass (Garner Glass Co., Claremont, Calif., USA), coated with Sylgard 184 (Dow Corning Corp., Midland, Mich.), heat polished to a tip resistance between 2 and 10 MΩ. Electrical contact with the pipette solution was achieved using a chloride silver wire. The reference electrode was made from an Ag—AgCl wire connected to the bath through an agar bridge made with Ringer solution (160 mM NaCl, 4.5 mM KCl, 2 mM CaCl2, 1 mM MgCl2, 5 mM Hepes adjusted to pH 7.4). Current signal from the Axopatch 200B (Axon Instruments, Foster City, Calif.) was recorded on PC through a Lab View SCB-68 (National Instruments, Austin, Tex.). Further data analysis was made with Origin 7.5. Seals were formed in Ringer solution in the bath, and the potential was zeroed when the pipette was in contact with the cell. Most measurements were done between 21 and 25° C.
K562 cells were transferred on chips or pipette into the recording chamber. To leave internal signaling pathways undisturbed, the perforated patch configuration was used. Low access resistance was usually reached after 5-10 minutes. The perforated patch recording bath and pipette solution contained 50 mM NH^4+ in the form of (NH4)2SO4, 2 mM MgCl2, 5 mM Bes or Pipes buffer, and 1 mM EGTA adjusted to pH 7.0 with TMAOH. […]

[4] = molecular target: T1, NOX1 (Homo sapiens, UniProt Q9Y5S8); details: cited from earlier work
T1 sequence (Q9Y5S8 1-564): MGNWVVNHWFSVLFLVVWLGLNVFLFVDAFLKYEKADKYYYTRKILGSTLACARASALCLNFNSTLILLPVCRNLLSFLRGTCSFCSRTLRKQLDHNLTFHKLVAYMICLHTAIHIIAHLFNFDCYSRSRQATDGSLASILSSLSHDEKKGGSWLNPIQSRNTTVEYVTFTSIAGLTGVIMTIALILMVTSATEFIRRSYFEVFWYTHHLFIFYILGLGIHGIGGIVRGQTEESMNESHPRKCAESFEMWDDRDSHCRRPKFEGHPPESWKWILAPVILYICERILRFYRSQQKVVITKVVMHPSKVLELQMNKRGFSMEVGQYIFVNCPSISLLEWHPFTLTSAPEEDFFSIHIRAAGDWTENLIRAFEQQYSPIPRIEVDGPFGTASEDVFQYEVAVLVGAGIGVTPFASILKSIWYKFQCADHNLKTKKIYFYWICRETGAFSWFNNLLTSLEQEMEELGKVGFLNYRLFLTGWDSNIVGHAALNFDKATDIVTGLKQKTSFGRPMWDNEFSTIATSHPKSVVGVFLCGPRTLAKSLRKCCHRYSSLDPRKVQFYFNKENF
T1 sequence (P13498 1-195 partner): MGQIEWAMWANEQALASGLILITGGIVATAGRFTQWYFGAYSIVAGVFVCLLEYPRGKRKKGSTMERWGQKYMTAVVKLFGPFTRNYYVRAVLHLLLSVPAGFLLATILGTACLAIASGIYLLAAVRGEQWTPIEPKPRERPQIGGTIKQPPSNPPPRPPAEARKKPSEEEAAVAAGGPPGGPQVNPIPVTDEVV

[5] = molecular target: T2, NOX2 (Homo sapiens, UniProt P04839); details: NOX1 and NOX4 versus NOX2; cited from earlier work
T2 sequence (P04839 2-570 limits assumed): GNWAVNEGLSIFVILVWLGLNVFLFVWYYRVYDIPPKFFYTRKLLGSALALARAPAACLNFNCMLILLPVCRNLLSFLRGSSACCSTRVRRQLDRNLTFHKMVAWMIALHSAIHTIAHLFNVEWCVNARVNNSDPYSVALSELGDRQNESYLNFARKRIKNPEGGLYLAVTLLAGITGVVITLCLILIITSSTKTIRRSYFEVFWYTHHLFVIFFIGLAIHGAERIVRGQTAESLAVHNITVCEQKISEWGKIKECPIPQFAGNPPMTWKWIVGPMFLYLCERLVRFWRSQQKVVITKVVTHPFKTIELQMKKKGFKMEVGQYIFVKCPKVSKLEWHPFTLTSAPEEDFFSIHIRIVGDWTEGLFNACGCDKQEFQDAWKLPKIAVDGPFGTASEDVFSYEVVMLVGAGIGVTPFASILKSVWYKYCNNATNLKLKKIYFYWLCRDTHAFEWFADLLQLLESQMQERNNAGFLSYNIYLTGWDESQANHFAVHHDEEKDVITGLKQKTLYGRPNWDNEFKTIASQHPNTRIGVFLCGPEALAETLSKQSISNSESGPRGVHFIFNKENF
T2 sequence (P13498 1-195 partner): T1 sequence (P13498 1-195 partner)

[6] = molecular target: T3, NOX5 (Homo sapiens, UniProt Q96PH1); details: same conditions as Laleu et al.; GenKyoTex, personal communication; read-out: inhibitory constant for NOX5; cited from earlier work
T3 sequence (Q96PH1 1-765): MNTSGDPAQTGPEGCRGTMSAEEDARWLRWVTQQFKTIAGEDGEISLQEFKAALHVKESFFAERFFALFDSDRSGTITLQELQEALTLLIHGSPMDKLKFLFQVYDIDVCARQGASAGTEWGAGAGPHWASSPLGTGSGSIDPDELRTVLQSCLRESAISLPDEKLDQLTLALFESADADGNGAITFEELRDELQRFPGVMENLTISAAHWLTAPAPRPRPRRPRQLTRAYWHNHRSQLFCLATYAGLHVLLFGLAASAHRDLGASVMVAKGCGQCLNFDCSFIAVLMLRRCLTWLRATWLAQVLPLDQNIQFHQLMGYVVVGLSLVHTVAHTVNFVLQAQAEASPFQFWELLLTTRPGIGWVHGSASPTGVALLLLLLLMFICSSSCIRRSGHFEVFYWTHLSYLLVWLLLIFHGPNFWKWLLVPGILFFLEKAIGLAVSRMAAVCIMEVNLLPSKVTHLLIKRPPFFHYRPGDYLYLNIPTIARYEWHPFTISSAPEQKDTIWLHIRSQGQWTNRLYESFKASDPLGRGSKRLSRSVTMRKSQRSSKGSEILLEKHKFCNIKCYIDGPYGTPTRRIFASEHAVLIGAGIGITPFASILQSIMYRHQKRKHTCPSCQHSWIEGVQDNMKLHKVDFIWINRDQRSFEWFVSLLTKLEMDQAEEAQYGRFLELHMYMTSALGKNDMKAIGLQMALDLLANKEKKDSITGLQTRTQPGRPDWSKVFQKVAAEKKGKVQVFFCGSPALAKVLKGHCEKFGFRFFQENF

O=C(O)CN(CC(=O)O)c1ccccc1OCCOc1ccccc1N(CC(=O)O)CC(=O)O [BAPTA, 1,2-Bis (2-aminophenoxy) ethane-N,N,N′,N′-tetraacetic acid]
effect on ionomycin-induced superoxide chemiluminescence signal [1]: blocked
effect on H2O2-induced superoxide chemiluminescence signal [1]: nearly completely abrogated

c1ccc2c(c1)[I+]c1ccccc1-2 [DPI, diphenylene iodonium]
effect on ionomycin-induced superoxide chemiluminescence signal [1]: blocked
effect on H2O2-induced superoxide chemiluminescence signal [1]: nearly completely abrogated
effect of pre-incubation on the H2O2 effect on motility [2]: abrogated

CN(C)CCCn1cc(C2=C(c3c[nH]c4ccccc34)C(=O)NC2=O)c2ccccc21 [GFX, GF109203X]
effect on PMA response of proton channels ([3]; GFX 3 μM after 60 nM PMA): Most features of the PMA response of proton channels were reversed

Cc1c2c(=O)n(-c3ccccc3Cl)[nH]c2cc(=O)n1Cc1ccccn1 [GKT136901, 2-(2-chlorophenyl)-4-methyl-5-(pyridin-2-ylmethyl)-1H-pyrazolo[4,3-c]pyridine-3,6(2H,5H)-dione]
effect on PMA-stimulated superoxide production ([1]; 1 μg/ml PMA): inhibited the stimulation of superoxide production by PMA in a concentration-dependent manner
effect on H2O2-induced superoxide chemiluminescence signal [1]: nearly completely abrogated
potency in inhibiting PMA-stimulated superoxide production, sperm cells as compared with neutrophils ([1]; human spermatozoa versus human neutrophils): ~10 fold
effect of pre-incubation on the H2O2 effect on motility [2]: abrogated
Ki [4]: 0.16 ± 0.01 µM
selectivity over NOX2 [5]: ~9 fold
Ki [6]: 0.45 ± 0.01 µM

CCCCCCCCCCCCCC(=O)O[C@@H]1[C@@H](C)[C@@]2(O)[C@@H](C=C(CO)C[C@]3(O)C(=O)C(C)=C[C@@H]23)[C@@H]2C(C)(C)[C@]12OC(C)=O [PMA, phorbol myristate acetate]
response of proton channels to stimulation ([3]; 60 nM PMA): enhanced gating mode

C[C@H](CCC(=O)O)C[C@H](C)C[C@H](C)C(=O)/C=C(\O)[C@H](C)C[C@H](C)C/C=C/[C@@H](C)[C@@H](O)[C@@H](C)[C@@H](O)C[C@@H]1CC[C@@](C)([C@H]2CC[C@@](C)([C@@H](C)O)O2)O1 [ionomycin]
induction of superoxide production by spermatozoa ([1]; ionomycin 1 μM, PMA 1 μg/ml or H2O2 100 μM, 10 min): induced vigorous superoxide production

Source: US10564168B2, “Method for treating male infertility based on NOX5 protein levels in sperm” (priority 2013, dated 2020)
